Results from US9551711B2, “Compositions and methods for detecting nitration of PKG-1α and methods of use thereof” (Augusta University Research Institute, Inc., priority 2013, dated 2017).

Experiments:
PKG-1α = molecular target: T1, PKG-1α (Homo sapiens, UniProt Q13976); test: PKG activity in transfected PASMC; assay type: cell-based, lamb; set-up: an expression plasmid containing a full length WT-PKG-1α cDNA; expressed in transfected cells; host or cells: primary pulmonary artery smooth muscle cells (PASMC) from 4-week old lambs; details: PASMC transfected with WT-PKG-1α; SIN-1 500 μM, 48 h
T1 sequence (Q13976 2-671): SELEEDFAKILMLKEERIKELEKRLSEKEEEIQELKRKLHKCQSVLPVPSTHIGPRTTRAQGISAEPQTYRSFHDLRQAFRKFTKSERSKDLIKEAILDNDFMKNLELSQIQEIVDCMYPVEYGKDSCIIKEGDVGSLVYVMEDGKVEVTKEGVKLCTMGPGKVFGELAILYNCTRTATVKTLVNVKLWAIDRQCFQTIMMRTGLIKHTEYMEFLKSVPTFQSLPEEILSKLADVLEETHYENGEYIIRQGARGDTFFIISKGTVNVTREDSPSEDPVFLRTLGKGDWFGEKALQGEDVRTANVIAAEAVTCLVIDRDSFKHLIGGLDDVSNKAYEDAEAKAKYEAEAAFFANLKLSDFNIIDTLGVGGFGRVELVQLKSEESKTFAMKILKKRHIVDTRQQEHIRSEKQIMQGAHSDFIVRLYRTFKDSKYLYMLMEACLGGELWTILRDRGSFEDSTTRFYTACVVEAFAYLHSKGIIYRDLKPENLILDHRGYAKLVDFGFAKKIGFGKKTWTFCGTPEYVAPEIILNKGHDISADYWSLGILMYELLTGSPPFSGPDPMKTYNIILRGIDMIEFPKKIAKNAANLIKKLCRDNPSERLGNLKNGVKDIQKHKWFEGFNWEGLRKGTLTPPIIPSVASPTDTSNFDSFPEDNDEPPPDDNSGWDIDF
Description: Therefore, the effect of these events were investigated in PASMC transiently transfected with expression plasmids containing WT- and Y247F-PKG-1α. The effect of nitration on pulmonary arterial smooth muscle cell (PASMC) growth and metabolism was determined. PASMC were transiently transfected with expression plasmids containing WT-PKG-1α, Y247F-PKG-1α or pDEST40 (as a control) for 20 h. Cells were then exposed or not to SIN-1 (500 μM, 48 h) and the effect on PKG protein levels (FIG. 2A) and activity determined (FIG. 2B).
Total PKG activity was determined using a non-radioactive immunoassay in cell lysates, according to the manufacturer's directions. Briefly, protein samples were diluted in kinase reaction buffer containing Mg^2+ and ATP (125 μM) in the presence or absence of 8-Br cGMP (10 μM) and incubated in a 96 well plate pre-coated with a PKG substrate containing threonine residues phosphorylated by PKG.
After incubation for 30 min at 30° C. to allow the phosphorylation of the bound substrate, an HRP conjugated anti-phosphothreonine specific antibody was added to convert a chromogenic substrate to a colorimetric substrate that was subsequently read spectrophotometrically at 450 nm. The change in absorbance reflected the relative activity of PKG in the sample. […] The kinetic constants were determined using nonlinear regression (curve fit) analysis (GraphPad Prism Software Inc.).

[1] = tested on: pulmonary artery smooth muscle cells (PASMC); test: PASMC immunocytochemistry for SM22-α and PCNA; assay type: cell-based, lamb; details: SIN-1 500 μM, 48 h
Description: Semi-confluent PASMC grown on a coverslip in a 6-well plate were transfected with a mammalian expression plasmid containing either a wild-type (WT)- or Y247F-PKG-1α cDNA. After 20 h, the cells were serum starved (1% FBS) for 4 h then exposed or not to SIN-1 (500 μM) for 48 h. The cells were washed with PBS, methanol fixed (5 min), and permeabilized in 0.1% PBS-Tween (20 min). The cells were then washed 3× with PBS and blocked for non-specific protein-protein interactions with 1% BSA in PBS (1 h). The antibodies, smooth muscle (SM) 22-α (5 μg/ml) or proliferating cell nuclear antigen (PCNA) (1 μg/ml) diluted in 1% BSA in PBS, were added and incubated overnight at 4° C. The cells were again washed 3× with PBS and incubated in secondary antibody (green): Alexa Fluor 488 goat anti-mouse IgG (H+L) (1/1000 dilution) for PCNA or Alexa Fluor 488 donkey anti-goat IgG (H+L) (1/1000 dilution) for SM22-α for 1 h in the dark. DAPI was used to stain the cell nuclei (blue) at a concentration of 0.5 μg/ml for 3 min. The cells were rinsed 3× with PBS, and the coverslips were mounted on the slides with ProLong Gold Antifade and analyzed with the use of a Nikon Eclipse TE 300 inverted fluorescent microscope with a 60× oil objective and a Hamamatsu digital camera.
To assess the effect of nitration on pulmonary arterial smooth muscle cell (PASMC) phenotype, PASMC were transiently transfected with expression plasmids containing WT-PKG-1α, Y247F-PKG-1α, or PDEST40 (as a control) for 20 h. Cells were then exposed or not to SIN-1 (500 μM, 48 h) and the effect on synthetic and contractile markers determined. The levels of myosin heavy chain (MYH, FIG. 3A), Calponin-1 (FIG. 3B), and Vimentin (FIG. 3C) were determined. The blots were then stripped and re-probed for β-actin to normalize for protein loading. PASMC were also subjected to immunohistochemistry using antibodies to SM22-α (5 μg/ml) and PCNA (1 μg/ml). Relevant secondary antibodies linked to Alexa Fluor 488 (green) were then applied. DAPI was also used to stain (blue) the cell nuclei.

- cGMP dependent increase in PKG activity (PKG-1α): attenuated
Substance: 3-morpholinosydnonimine N-ethylcarbamide [SIN-1]
- PCNA staining ([1]; WT-PKG-1α expressing PASMC): increased
- SM-22α expression ([1]; WT-PKG-1α expressing PASMC): attenuated
- filamentous SM22-α expression and nuclear staining of PCNA ([1]; Y247F-PKG-1α expressing PASMC): unaffected
